A word on the IC50: it is the concentration at which inhibition is half-maximal.

The experiment addresses full-length recombinant human FYN A (Homo sapiens (Human), UniProt P06241). As to the kind of experiment: ADP-Glo Kinase Assay of FYN kinase inhibition. Type of experiment: biochemical. The note with it: primary screen, initial compounds. An outline of the steps:
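GST-tagged full-length FYN A (baculovirus, Sf9) at 3 pg preincubated 30 min RT with compound (10-point 3-fold series from 10 μM) in Tris pH 7.5/MgCl2 buffer. 12-mer tyrosine peptide plus 12.5 pmol ATP added, 90 min RT; ADP measured by ADP-Glo luminescence, IC50 from dose-response.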
For orientation: In ADP-Glo the light output rises with the ADP produced.

full-length recombinant human FYN A, sequence (P06241 whole entry): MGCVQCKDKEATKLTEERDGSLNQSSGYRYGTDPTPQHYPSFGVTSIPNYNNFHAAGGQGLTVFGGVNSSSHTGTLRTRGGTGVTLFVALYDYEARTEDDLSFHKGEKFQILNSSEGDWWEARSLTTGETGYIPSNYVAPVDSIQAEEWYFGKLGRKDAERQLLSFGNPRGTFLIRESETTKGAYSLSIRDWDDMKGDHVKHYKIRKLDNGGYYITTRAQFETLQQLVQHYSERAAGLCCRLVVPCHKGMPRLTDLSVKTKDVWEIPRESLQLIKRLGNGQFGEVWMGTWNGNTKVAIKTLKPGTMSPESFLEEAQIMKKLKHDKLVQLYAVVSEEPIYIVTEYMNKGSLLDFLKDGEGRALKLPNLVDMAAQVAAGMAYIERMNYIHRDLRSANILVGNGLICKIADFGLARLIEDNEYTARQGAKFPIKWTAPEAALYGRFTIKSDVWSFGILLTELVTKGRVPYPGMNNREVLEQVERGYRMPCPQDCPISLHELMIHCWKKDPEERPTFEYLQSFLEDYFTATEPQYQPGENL

For the compound `COc1cccc(-c2ccc3ncc(-c4cccc(O)c4)n3n2)c1` [Compound 355, 3-[6-(3-methoxyphenyl)imidazo[1,2-b]pyridazin-3-yl]phenol], the IC50 turned out to be 1240 nM. With `COc1cc(-c2cnc3ccc(-c4ccc(OC)c(OC)c4)nn23)ccc1O` [Compound 356, 4-[6-(3,4-dimethoxyphenyl)imidazo[1,2-b]pyridazin-3-yl]-2-methoxy-phenol] the figure was 44.5 nM.

As for `COc1ccccc1-c1ccc2ncc(-c3cccc(C(C)=O)c3)n2n1` [Compound 357, 1-[3-[6-(2-methoxyphenyl)imidazo[1,2-b]pyridazin-3-yl]phenyl] ethanone], the IC50 worked out at 2330 nM. Turning to `CC(=O)c1cccc(-c2cnc3ccc(-c4cnn(C)c4)nn23)c1` [Compound 358, 1-[3-[6-(1-methylpyrazol-4-yl)imidazo[1,2-3]pyridazin-3-yl]phenyl] ethanone], the IC50 amounted to 373 nM. With `CS(=O)(=O)Nc1cccc(-c2ccc3ncc(-c4cccs4)n3n2)c1` [Compound 359, N-[3-[3-(2-thienyl)imidazo [1,2-b]pyridazin-6-yl]phenyl] methane-sulfonamide] the figure was 1210 nM; with `c1cncc(-c2ccc3ncc(-c4ccc5c(c4)OCO5)n3n2)c1` [Compound 360, 3-(1,3-benzodioxol-5-yl)-6-(3-pyridyl)imidazo [1,2-b]pyridazine], 688 nM. With `OCc1ccc(-c2ccc3ncc(-c4cccnc4)n3n2)cc1` [Compound 361, [4-[3-(3-pyridyl)imidazo [1,2-b]pyridazin-6-yl]phenyl] methanol] the figure was 2910 nM. Consider `OCc1ccc(-c2ccc3ncc(-c4cccc(O)c4)n3n2)cc1` [Compound 363, 3-[6-[4-(hydroxymethyl)phenyl]imidazo [1,2-b]pyridazin-3-yl]phenol], for which the IC50 worked out at 285 nM. With `COc1ccccc1-c1ccc2ncc(-c3ccc(CO)cc3)n2n1` [Compound 364], the IC50 is 3900 nM. With `COc1cccc(-c2ccc3ncc(-c4ccc(CO)cc4)n3n2)c1` [Compound 365, [4-[6-(3-methoxyphenyl)imidazo[1,2-b]pyridazin-3-yl]phenyl] methanol] the figure was 1560 nM; with `COc1cccc(-c2ccc3ncc(-c4ccc(O)c(OC)c4)n3n2)c1` [Compound 366, 2-methoxy-4-[6-(3-methoxyphenyl)imidazo[1,2-b]pyridazin-3-yl]phenol], 221 nM. With `CC(=O)c1cccc(-c2cnc3ccc(-c4ccoc4)nn23)c1` [Compound 367, 1-[3-[6-(3-furyl)imidazo [1,2-b]pyridazin-3-yl]phenyl] ethanone] the figure was 3440 nM; with `NC(=O)c1ccc(-c2ccc3ncc(-c4cccs4)n3n2)cc1` [Compound 368, 4-[3-(2-thienyl)imidazo [1,2-b]pyridazin-6-yl]benzamide], 951 nM; with `O=C(NCCO)c1cccc(-c2ccc3ncc(-c4ccc5c(c4)OCO5)n3n2)c1` [Compound 369, 3-[3-(1,3-benzodioxol-5-yl)imidazo[1,2-b]pyridazin-6-yl]-N-(2-hydroxyethyl) benzamide], 367 nM. With `OCc1cccc(-c2ccc3ncc(-c4ccc5c(c4)OCO5)n3n2)c1` [Compound 370, [3-[3-(1,3-benzodioxol-5-yl)imidazo[1,2-b]pyridazin-6-yl]phenyl] methanol] the figure was 332 nM; with `CC(=O)Nc1cccc(-c2cnc3ccc(-c4cccs4)nn23)c1` [Compound 371, N-[3-[6-(2-thienyl)imidazo [1,2-b]pyridazin-3-yl]phenyl] acetamide], 210 nM.

Turning to `Oc1cccc(-c2cnc3ccc(-c4ccccc4)nn23)c1` [Compound 372, 3-(6-phenylimidazo [1,2-b]pyridazin-3-yl)phenol], the IC50 turned out to be 894 nM. With `CC(=O)c1cccc(-c2ccc3ncc(-c4cccc(O)c4)n3n2)c1` [Compound 373, 1-[3-[3-(3-hydroxyphenyl)imidazo[1,2-b]pyridazin-6-yl]phenyl] ethanone] the figure was 1600 nM.

For the origin of these results see patent US10688093B2, “Methods, compositions, and uses of novel Fyn kinase inhibitors” (priority 2015, dated 2020).
